Assay results: ChEMBL document CHEMBL1201861, “Genomics of Drug Sensitity in Cancer screening data, Wellcome Trust Sanger Institute”

What was measured:
Assay in all cases: cells
[1] = system: ES5; format: functional, cell-based, Homo sapiens; settings: Homo sapiens, ES5;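 note: growth inhibition of human ES5 cells, read out by a cell viability assay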
Description: SANGER: Inhibition of human ES5 cell growth in a cell viability assay.

[2] = system: 786-0; format: functional, cell-based, Homo sapiens; settings: Homo sapiens
Description: SANGER: Inhibition of human 786-0 cell growth in a cell viability assay.

[3] = system: GB-1; format: functional, cell-based, Homo sapiens; settings: Homo sapiens, GB-1;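 note: growth of GB-1 cells judged by a viability assay, IC50 marks the concentration inhibiting growth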
Description: SANGER: Inhibition of human GB-1 cell growth in a cell viability assay.

[4] = system: A2780; format: functional, cell-based, Homo sapiens; settings: Homo sapiens, A2780;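 note: growth inhibition of A2780 cells, read out with a cell viability assay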
Description: SANGER: Inhibition of human A2780 cell growth in a cell viability assay.

[5] = system: SCH; format: functional, cell-based, Homo sapiens; settings: Homo sapiens, SCH;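 note: growth inhibition of human SCH cells, read out in a cell viability assay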
Description: SANGER: Inhibition of human SCH cell growth in a cell viability assay.

[6] = system: OCI-AML2; format: functional, cell-based; settings: Homo sapiens;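 note: growth inhibition of OCI-AML2 cells, read out with a cell viability assay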
Description: SANGER: Inhibition of human OCI-AML2 cell growth in a cell viability assay.

[7] = system: HCC1954; format: functional, cell-based, Homo sapiens; settings: Homo sapiens, HCC1954;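 note: growth inhibition of human HCC1954 cells, read out with a cell viability assay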
Description: SANGER: Inhibition of human HCC1954 cell growth in a cell viability assay.

[8] = system: RKO; format: functional, cell-based, Homo sapiens; settings: Homo sapiens, RKO;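 note: growth inhibition of human RKO cells, read out with a cell viability assay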
Description: SANGER: Inhibition of human RKO cell growth in a cell viability assay.

[9] = system: RT-112; format: functional, cell-based, Homo sapiens; settings: Homo sapiens, RT-112
Description: SANGER: Inhibition of human RT-112 cell growth in a cell viability assay.

[10] = system: FTC-133; format: functional, cell-based, Homo sapiens; settings: Homo sapiens, FTC-133
[11] = system: Capan-2; format: functional, cell-based, Homo sapiens; settings: Homo sapiens, Capan-2;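 note: Capan-2 cell growth inhibition, read out with a viability assay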
Description: SANGER: Inhibition of human Capan-2 cell growth in a cell viability assay.

[12] = system: LC-2-ad; format: functional, cell-based, Homo sapiens; settings: Homo sapiens, LC-2-ad;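 note: growth inhibition of human LC-2-ad cells, read out with a cell viability assay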
Description: SANGER: Inhibition of human LC-2-ad cell growth in a cell viability assay.

[13] = system: KYSE-70 cell line; format: functional, cell-based, Homo sapiens; settings: Homo sapiens, KYSE-70;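 note: cell viability assay read-out, with IC50 expressing suppression of KYSE-70 cell growth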
Description: SANGER: Inhibition of human KYSE-70 cell growth in a cell viability assay.

[14] = system: HCE-T; format: functional, cell-based, Homo sapiens; settings: Homo sapiens, HCE-T;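 note: cell viability assay read-out, reporting inhibition of HCE-T cell growth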
Description: SANGER: Inhibition of human HCE-T cell growth in a cell viability assay.

[15] = system: LoVo; format: functional, cell-based; settings: Homo sapiens;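 note: growth inhibition of human LoVo cells, read out with a cell viability assay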
Description: SANGER: Inhibition of human LoVo cell growth in a cell viability assay.

[16] = system: SNU-387; format: functional, cell-based, Homo sapiens; settings: Homo sapiens, SNU-387
Description: SANGER: Inhibition of human SNU-387 cell growth in a cell viability assay.

[17] = system: SW-620; format: functional, cell-based, Homo sapiens; settings: Homo sapiens, SW-620;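 note: growth inhibition of human SW-620 cells, measured by a cell viability assay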
Description: SANGER: Inhibition of human SW620 cell growth in a cell viability assay.

[18] = system: KNS-81-FD; format: functional, cell-based, Homo sapiens; settings: Homo sapiens, KNS-81-FD;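 note: growth inhibition of KNS-81-FD cells, read out with a cell viability assay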
Description: SANGER: Inhibition of human KNS-81-FD cell growth in a cell viability assay.

[19] = system: MS-1; format: functional, cell-based; settings: Homo sapiens;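 note: growth inhibition of MS-1 cells, read out by cell viability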
Description: SANGER: Inhibition of human MS-1 cell growth in a cell viability assay.

[20] = system: NCI-H810; format: functional, cell-based, Homo sapiens; settings: Homo sapiens, NCI-H810;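 note: IC50 reflects inhibition of cancer cell line growth, read out with a cell viability assay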
Description: SANGER: Inhibition of human NCI-H810 cell growth in a cell viability assay.

[21] = system: SF-126; format: functional, cell-based, Homo sapiens; settings: Homo sapiens, SF-126;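 note: growth inhibition of human SF126 cells, read out with a cell viability assay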
Description: SANGER: Inhibition of human SF126 cell growth in a cell viability assay.

[22] = system: TGBC24TKB; format: functional, cell-based, Homo sapiens; settings: Homo sapiens, TGBC24TKB;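 note: growth inhibition of human TGBC24TKB cells, read out with a cell viability assay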
Description: SANGER: Inhibition of human TGBC24TKB cell growth in a cell viability assay.

[23] = system: L-363; format: functional, cell-based; settings: Homo sapiens
Description: SANGER: Inhibition of human L-363 cell growth in a cell viability assay.

[24] = system: KP-N-YN; format: functional, cell-based; settings: Homo sapiens;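 note: growth inhibition of KP-N-YN cells, read out with a cell viability assay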
Description: SANGER: Inhibition of human KP-N-YN cell growth in a cell viability assay.

[25] = system: MEG-01; format: functional, cell-based; settings: Homo sapiens;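 note: growth inhibition of MEG-01 cells, read out by a cell viability assay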
Description: SANGER: Inhibition of human MEG-01 cell growth in a cell viability assay.

[26] = system: NB10; format: functional, cell-based, Homo sapiens; settings: Homo sapiens, NB10;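 note: growth inhibition of NB10 cells, read out by a cell viability assay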
Description: SANGER: Inhibition of human NB10 cell growth in a cell viability assay.

[27] = system: KYSE-510; format: functional, cell-based, Homo sapiens; settings: Homo sapiens, KYSE-510;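 note: cell viability readout used to measure how strongly growth of the cell line is suppressed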
Description: SANGER: Inhibition of human KYSE-510 cell growth in a cell viability assay.

[28] = system: AN3-CA; format: functional, cell-based; settings: Homo sapiens;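 note: growth inhibition of human AN3-CA cells measured by a cell viability assay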
Description: SANGER: Inhibition of human AN3-CA cell growth in a cell viability assay.

[29] = system: NCI-H1355; format: functional, cell-based, Homo sapiens; settings: Homo sapiens, NCI-H1355;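 note: growth inhibition of human NCI-H1355 cells, read out by a cell viability assay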
Description: SANGER: Inhibition of human NCI-H1355 cell growth in a cell viability assay.

[30] = system: CHL-1; format: functional, cell-based, Homo sapiens; settings: Homo sapiens, CHL-1;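 note: cell growth inhibition, read out with a cell viability assay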
Description: SANGER: Inhibition of human CHL-1 cell growth in a cell viability assay.

[31] = system: LOX IMVI; format: functional, cell-based; settings: Homo sapiens
Description: SANGER: Inhibition of human LOXIMVI cell growth in a cell viability assay.

[32] = system: SK-MEL-24; format: functional, cell-based; settings: Homo sapiens;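 note: growth inhibition read out by a cell viability assay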
Description: SANGER: Inhibition of human SK-MEL-24 cell growth in a cell viability assay.

[33] = system: SCC-25; format: functional, cell-based, Homo sapiens; settings: Homo sapiens, SCC-25;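 note: growth inhibition of SCC-25 cells, measured with a cell viability assay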
Description: SANGER: Inhibition of human SCC-25 cell growth in a cell viability assay.

[34] = system: TYK-nu; format: functional, cell-based, Homo sapiens; settings: Homo sapiens, TYK-nu;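 note: growth inhibition of human TYK-nu cells, read out by a cell viability assay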
Description: SANGER: Inhibition of human TYK-nu cell growth in a cell viability assay.

[35] = system: KYSE-520 cell line; format: functional, cell-based, Homo sapiens; settings: Homo sapiens, KYSE-520;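 note: growth inhibition of human KYSE-520 cells, read out with a viability assay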
Description: SANGER: Inhibition of human KYSE-520 cell growth in a cell viability assay.

[36] = system: ES7; format: functional, cell-based, Homo sapiens; settings: Homo sapiens, ES7;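 note: growth inhibition of cultured human ES7 cells, read out as cell viability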
Description: SANGER: Inhibition of human ES7 cell growth in a cell viability assay.

[37] = system: HMV-2 cell line; format: functional, cell-based, Homo sapiens; settings: Homo sapiens, HMV-2;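 note: growth inhibition of HMV-II cells, read out with a cell viability assay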
Description: SANGER: Inhibition of human HMV-II cell growth in a cell viability assay.

[38] = system: HuP-T4; format: functional, cell-based, Homo sapiens; settings: Homo sapiens, HuP-T4;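 note: cell viability assay measuring how much HuP-T4 cell growth is inhibited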
Description: SANGER: Inhibition of human HuP-T4 cell growth in a cell viability assay.

[39] = system: NB7; format: functional, cell-based; settings: Homo sapiens;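 note: growth inhibition of NB7 cells, read out with a cell viability assay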
Description: SANGER: Inhibition of human NB7 cell growth in a cell viability assay.

[40] = system: TE-10; format: functional, cell-based, Homo sapiens; settings: Homo sapiens, TE-10;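 note: growth inhibition of TE-10 cells, measured by a cell viability assay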
Description: SANGER: Inhibition of human TE-10 cell growth in a cell viability assay.

[41] = system: NCI-H1650; format: functional, cell-based, Homo sapiens; settings: Homo sapiens, NCI-H1650;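 note: growth inhibition of human NCI-H1650 cells measured by a cell viability assay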
Description: SANGER: Inhibition of human NCI-H1650 cell growth in a cell viability assay.

[42] = system: SNU-5; format: functional, cell-based; settings: Homo sapiens;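 note: cell viability readout used to measure growth inhibition in human NCI-SNU-5 cells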
Description: SANGER: Inhibition of human NCI-SNU-5 cell growth in a cell viability assay.

[43] = system: OVCAR-3; format: functional, cell-based, Homo sapiens; settings: Homo sapiens, OVCAR-3;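 note: growth inhibition of human OVCAR-3 cells, determined by a cell viability assay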
Description: SANGER: Inhibition of human OVCAR-3 cell growth in a cell viability assay.

[44] = system: JVM-3; format: functional, cell-based; settings: Homo sapiens;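 note: growth inhibition of human JVM-3 cells, read out with a cell viability assay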
Description: SANGER: Inhibition of human JVM-3 cell growth in a cell viability assay.

[45] = system: SK-LU-1; format: functional, cell-based, Homo sapiens; settings: Homo sapiens, SK-LU-1;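 note: cell viability assay measuring growth inhibition of human SK-LU-1 cells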
Description: SANGER: Inhibition of human SK-LU-1 cell growth in a cell viability assay.

[46] = system: 8505C; format: functional, cell-based, Homo sapiens; settings: Homo sapiens, 8505C
Description: SANGER: Inhibition of human 8505C cell growth in a cell viability assay.

[47] = system: NCI-H520; format: functional, cell-based, Homo sapiens; settings: Homo sapiens, NCI-H520;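 note: growth inhibition of NCI-H520 cells, measured by a cell viability assay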
Description: SANGER: Inhibition of human NCI-H520 cell growth in a cell viability assay.

[48] = system: SJSA-1; format: functional, cell-based, Homo sapiens; settings: Homo sapiens, SJSA-1;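 note: growth inhibition of human SJSA-1 cells, read out through a cell viability measurement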
Description: SANGER: Inhibition of human SJSA-1 cell growth in a cell viability assay.

[49] = system: MN-60; format: functional, cell-based; settings: Homo sapiens;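 note: growth inhibition of the MN-60 cell line, determined with a cell viability assay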
Description: SANGER: Inhibition of human MN-60 cell growth in a cell viability assay.

[50] = system: BB49-HNC; format: functional, cell-based, Homo sapiens; settings: Homo sapiens, BB49-HNC;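 note: cell viability assay read-out, reported as inhibition of BB49-HNC cell growth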
Description: SANGER: Inhibition of human BB49-HNC cell growth in a cell viability assay.

[51] = system: YAPC; format: functional, cell-based, Homo sapiens; settings: Homo sapiens, YAPC;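 note: growth inhibition of YAPC cells, measured with a cell viability assay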
Description: SANGER: Inhibition of human YAPC cell growth in a cell viability assay.

SMILES: CN(Cc1cnc2nc(N)nc(N)c2n1)c1ccc(C(=O)N[C@@H](CCC(=O)O)C(=O)O)cc1 [METHOTREXATE]
- IC50 [1]: > 200 nM
- IC50 [2]: > 200 nM
- IC50 [3]: > 200 nM
- IC50 [4]: 54.5 nM
- IC50 [5]: > 200 nM
- IC50 [6]: > 200 nM
- IC50 [7]: > 200 nM
- IC50 [8]: > 200 nM
- IC50 [9]: 142 nM
- IC50 [10]: > 200 nM
- IC50 [11]: > 200 nM
- IC50 [12]: > 200 nM
- IC50 [13]: > 200 nM
- IC50 [14]: > 200 nM
- IC50 [15]: > 200 nM
- IC50 [16]: > 200 nM
- IC50 [17]: > 200 nM
- IC50 [18]: > 200 nM
- IC50 [19]: 45.3 nM
- IC50 [20]: > 200 nM
- IC50 [21]: > 200 nM
- IC50 [22]: > 200 nM
- IC50 [23]: 14.3 nM
- IC50 [24]: > 200 nM
- IC50 [25]: 99.4 nM
- IC50 [26]: > 200 nM
- IC50 [27]: 91.7 nM
- IC50 [28]: > 200 nM
- IC50 [29]: > 200 nM
- IC50 [30]: > 200 nM
- IC50 [31]: > 200 nM
- IC50 [32]: > 200 nM
- IC50 [33]: > 200 nM
- IC50 [34]: 197 nM
- IC50 [35]: > 200 nM
- IC50 [36]: 148 nM
- IC50 [37]: > 200 nM
- IC50 [38]: > 200 nM
- IC50 [39]: > 200 nM
- IC50 [40]: > 200 nM
- IC50 [41]: > 200 nM
- IC50 [42]: > 200 nM
- IC50 [43]: > 200 nM
- IC50 [44]: 16 nM
- IC50 [45]: > 200 nM
- IC50 [46]: > 200 nM
- IC50 [47]: > 200 nM
- IC50 [48]: > 200 nM
- IC50 [49]: 65.7 nM
- IC50 [50]: > 200 nM
- IC50 [51]: > 200 nM

SMILES: O=C(c1cc(Cc2n[nH]c(=O)c3ccccc23)ccc1F)N1CCN(C(=O)C2CC2)CC1 [OLAPARIB]
- IC50 [1]: 2880 nM
- IC50 [2]: > 5000 nM
- IC50 [3]: > 5000 nM
- IC50 [4]: > 5000 nM
- IC50 [5]: > 5000 nM
- IC50 [6]: > 5000 nM
- IC50 [7]: > 5000 nM
- IC50 [8]: > 5000 nM
- IC50 [9]: > 5000 nM
- IC50 [10]: > 5000 nM
- IC50 [11]: > 5000 nM
- IC50 [12]: > 5000 nM
- IC50 [13]: > 5000 nM
- IC50 [14]: > 5000 nM
- IC50 [15]: > 5000 nM
- IC50 [16]: > 5000 nM
- IC50 [17]: > 5000 nM
- IC50 [18]: > 5000 nM
- IC50 [19]: > 5000 nM
- IC50 [20]: > 5000 nM
- IC50 [21]: > 5000 nM
- IC50 [22]: > 5000 nM
- IC50 [23]: > 5000 nM
- IC50 [24]: > 5000 nM
- IC50 [25]: > 5000 nM
- IC50 [26]: > 5000 nM
- IC50 [27]: > 5000 nM
- IC50 [28]: > 5000 nM
- IC50 [29]: > 5000 nM
- IC50 [30]: > 5000 nM
- IC50 [31]: > 5000 nM
- IC50 [32]: > 5000 nM
- IC50 [33]: > 5000 nM
- IC50 [34]: > 5000 nM
- IC50 [35]: > 5000 nM
- IC50 [36]: > 5000 nM
- IC50 [37]: > 5000 nM
- IC50 [38]: > 5000 nM
- IC50 [39]: > 5000 nM
- IC50 [40]: > 5000 nM
- IC50 [41]: > 5000 nM
- IC50 [42]: > 5000 nM
- IC50 [43]: > 5000 nM
- IC50 [44]: > 5000 nM
- IC50 [45]: > 5000 nM
- IC50 [46]: > 5000 nM
- IC50 [47]: > 5000 nM
- IC50 [48]: > 5000 nM
- IC50 [49]: > 5000 nM
- IC50 [50]: > 5000 nM
- IC50 [51]: > 5000 nM
